In patent EP0319228A2, “Novel compounds” (BEECHAM GROUP PLC, priority 1987, dated 1989):
Converted amounts (≈) assume the structure as drawn. Read-outs that look alike come from different tables or passages of the source.

Experiments:
Format in all cases: cell-based
[1] = test system: herpes simplex virus 1 (HSV-1; strain HFEM); test: Plaque reduction test for herpes simplex virus 1; conditions: read-out: IC₅₀ Herpes Simplex virus Type 1 HFEM strain in Vero cells
Description: (§1) Cells (Vero or MRC-5) were grown to confluence in 24 well multi-dishes (well diameter = 1.5cm). The drained cell monolayers were each infected with approximately 50 infectious particles of herpes simplex virus 1 (HSV-1; strain HFEM) or herpes simplex virus 2 (HSV-2; strain MS) in 100µl of phosphate-buffered saline. The virus was absorbed for 1 hour at room temperature. After adsorption, residual inoculum was removed from each well and replaced with 0.5ml of Eagle's MEM containing 5% newborn calf serum and 0.9% agarose (A37). Once the agarose had set, dilutions of the test compound, which had been prepared in Eagle's MEM (containing 5% newborn calf serum), were added, each well receiving 0.5ml of liquid overlay. The test compound was diluted to give the following series of concentrations: 200, 60, 20, 6....0.06µg/ml; final concentrations in the assay ranged, therefore, between 100µg/ml and 0.03µg/ml. The infected cultures were incubated at 37°C in a humidified atmosphere of 5% CO₂ until plaques were clearly visible (2 or 3 days for Vero cells, usually […] for MRC-5 cells).
(§2) Cultures from 1 and 2 were fixed in formol saline, the agarose overlays were carefully washed off, and then the cell monolayers were stained with carbol fuchsin. A stereo microscope was used to count plaques. The IC₅₀ (concentration of drug which inhibits the number of plaques formed by 50% relative to the number of plaques observed in virus control monolayers) of the test compound was calculated. In addition, the monolayers were examined for evidence of drug-induced cytotoxicity; the minimum concentration at which cytotoxicity occurs was recorded.

[2] = test system: herpes simplex virus 2 (HSV-2; strain MS); test: Plaque reduction test for herpes simplex virus 2
Description: as §1, §2

[3] = test system: varicella zoster virus (VZV; Ellen strain); test: Plaque reduction test for varicella zoster virus
Description: MRC-5 cells were grown to confluence in 24 well multi-dishes (well diameter = 1.5cm). The drained cell monolayers were each infected with approximately 50 infectious particles of varicella zoster virus (VZV; Ellen strain) in 100µl of phosphate-buffered saline. The virus was adsorbed for 1 hour at room temperature. After adsorption, residual inoculum was removed from each well and replaced with 0.5ml of Eagles's MEM containing 5% […] foetal calf serum and 0.9% agarose (A37). Once the agarose had set, dilutions of the test compound, which had been prepared in Eagle's MEM (containing 5% heat-inactivated foetal calf serum), were added, each well receiving 0.5ml of liquid overlay. The test compound was diluted to give the following series of concentrations: 200, 60, 20, 6....0.06µg/ml; final concentrations in the assay ranged, therefore, between 100µg/ml and 0.03µg/ml. The infected cultures were incubated at 37°C in a humidified atmosphere of 5% CO₂ until plaques were clearly visible (5 or 6 days).
as §2

[4] = test system: visna virus (strain K184); test: CPE inhibition test (established monolayer) for lentiviruses; conditions: Visna-maedi virus, read-out: MIC Visna Virus K184 strain in SCP cells
Description: 3 x 10⁴ sheep choroid plexus (SCP) cells were plated into individual wells of a 96 well microtitre plate in 100µl of Eagle's MEM with Hanks' salts containing 10% heat inactivated foetal calf serum (FCS). When monolayers had become established (after 1 or 2 days growth) they were washed with 200µl of maintenance medium (Eagle's MEM with Hanks' salts containing 0.5% FCS) and infected with 100µl of visna virus (strain K184) in maintenance medium (20 TCID₅₀/ml). Test samples were diluted with maintenance medium in further 96 well microtitre plates over the range 200-0.06µg/ml by 3-fold dilution steps. 100µl of the diluted samples was then transferred directly onto virus-infected monolayers (final concentration range therefore 100-0.03µg/ml) and incubated at 37°C in a humidified atmosphere containing, 5% CO₂ until virus-induced CPE was maximal in the untreated virus-infected controls (usually 12-14 days). The plates were fixed with formal saline and stained with crystal violet. Virus-induced CPE was then scored microscopically and the minimum concentration of sample giving complete protection of the cell monolayers (MIC) determined.

[5] = Human alphaherpesvirus 2, MRC5, read-out: IC₅₀ Herpes Simplex virus Type 2 MS strain in MRC-5 cells
[6] = Human alphaherpesvirus 3, MRC5, read-out: IC₅₀ Varicella Zoster virus Ellen strain in MRC-5 cells
[7] = Human alphaherpesvirus 1, plaque reduction, HFEM strain, Vero cells
[8] = Human alphaherpesvirus 2, MRC5, plaque reduction, MS strain, MRC-5 cells, read-out: IC₅₀ Herpes Simplex virus Type 2 MS strain in MRC-5 cells
[9] = Human alphaherpesvirus 3, MRC5, plaque reduction, Ellen strain, MRC-5 cells, read-out: IC₅₀ Varicella Zoster virus Ellen strain in MRC-5 cells
[10] = minimum concentration giving complete protection of the cell monolayers from virus-induced CPE, sheep choroid plexus (SCP) cells

Row | SMILES | IC50 [1, 7] [µg/mL] | MIC [4, 10] [µg/mL] | IC50 ([1]; Human alphaherpesvirus 1, Vero) [µg/mL] | IC50 [2, 5] [µg/mL] | IC50 [3, 6] [µg/mL] | MIC ([4]; in Ovis aries) [µg/mL] | IC50 [2, 8] [µg/mL] | IC50 [3, 9] [µg/mL]
1 | CCOP(=O)(COCCOn1cnc2c(N)ncnc21)OCC [Example 1, 9-[2-(Diethoxyphosphorylmethoxy)ethoxy]adenine] |  |  | > 100 | > 100 | > 100 | 100 (≈ 290 µM) |  | 
2 | CCOP(=O)(COCCOn1cnc2c(=O)[nH]c(N)nc21)OCC [Example 3, 9-[2-(Diethoxyphosphorylmethoxy)ethoxy]guanine] |  |  | > 100 | > 100 | 51 (≈ 141 µM) | 10 (≈ 27.7 µM) |  | 
3 | CCOP(=O)(O)COCCOn1cnc2c(=O)[nH]c(N)nc21 [Example 5, 9-[2-[Ethoxy(hydroxy)phosphorylmethoxy)ethoxy]guanine] |  |  | 59 (≈ 177 µM) |  | < 3 |  |  | 
4 | CCOP(=O)(O)COC(CO)COn1cnc2c(N)ncnc21 (centres unmarked) [Example 8, 9-[2-[ethoxy(hydroxy)phosphorylmethoxy]-3-hydroxypropoxy]adenine] |  |  | > 100 | > 100 | 60 (≈ 173 µM) | 1 (≈ 2.88 µM) |  | 
5 | Nc1nc2c(ncn2OCC(CO)OCP(=O)(O)O)c(=O)[nH]1 (centres unmarked) [Example 10, 9-[3-Hydroxy-2-(phosphonomethoxy)propoxy]guanine] | 17 (≈ 50.7 µM) | < 0.003 |  |  |  |  | 7.3 (≈ 21.8 µM) | 21 (≈ 62.6 µM)
6 | CCOP(=O)(COCCOn1cnc2c(N)nc(N)nc21)OCC [Example 11, 2,6-Diamino-9-[2-(diethoxyphosphorylmethoxy)ethoxy]purine] |  |  | > 100 |  | > 100 | 30 (≈ 83.3 µM) |  | 
7 | Nc1nc(Cl)c2ncn(OCCOCP(=O)(O)O)c2n1 [Example 13, 2-Amino-6-chloro-9-[2-(phosphonomethoxy)ethoxy]purine] | 3.7 (≈ 11.4 µM) | < 0.03 |  |  |  |  |  | 0.5 (≈ 1.54 µM)
8 | COc1nc(N)nc2c1ncn2OCCOCP(=O)(O)O [Example 14, 2-Amino-6-methoxy-9-[2-(phosphonomethoxy)ethoxy]purine] | < 3 | < 0.03 |  |  |  |  |  | < 0.03

Continued, in another order:

Row | IC50 [1, 7] [µg/mL] | MIC [4, 10] [µg/mL] | SMILES | IC50 ([1]; Human alphaherpesvirus 1, Vero) [µg/mL] | IC50 [2, 5] [µg/mL] | IC50 [3, 6] [µg/mL] | MIC ([4]; in Ovis aries) [µg/mL] | IC50 [2, 8] [µg/mL] | IC50 [3, 9] [µg/mL]
9 | > 100 | 3 (≈ 10.4 µM) | Nc1ncnc2c1ncn2OCCOCP(=O)(O)O [Example 2, 9-[2-(Phosphonemethoxy)ethoxy]adenine] |  |  |  |  | 69 (≈ 239 µM) | 80 (≈ 277 µM)
10 | 1.1 (≈ 3.6 µM) | < 0.003 | Nc1nc2c(ncn2OCCOCP(=O)(O)O)c(=O)[nH]1 [Example 4, 9-[2-(Phosphonomethoxy)ethoxy]guanine] |  |  |  |  | 0.08 (≈ 0.262 µM) | 0.06 (≈ 0.197 µM)
11 | > 100 | 0.3 (≈ 0.94 µM) | Nc1ncnc2c1ncn2OCC(CO)OCP(=O)(O)O (centres unmarked) [Example 7, 9-[3-Hydroxy-2-(phosphonomethoxy)propoxy]adenine] |  |  |  |  | > 100 | 66 (≈ 207 µM)
12 | 24 (≈ 78.9 µM) | 0.3 (≈ 0.986 µM) | Nc1nc(N)c2ncn(OCCOCP(=O)(O)O)c2n1 [Example 12, 2,6-Diamino-9-[2-phosphonomethoxy)ethoxy]purine] |  |  |  |  |  | < 3
13 | 29 (≈ 91.4 µM) |  | Nc1nc2c(ncn2OCC2COP(=O)(O)CO2)c(=O)[nH]1 (centres unmarked) [Example 15, 9-[(2-Hydroxy-2-oxo-1,4,2-dioxaphosphorinan-5-yl)methoxy]guanine] |  |  |  |  |  | < 3
